In patent publication EP4671251A1, “SALTS OF COMPOUNDS, CRYSTAL FORMS THEREOF, PREPARATION METHOD THEREFOR AND USE THEREOF” (TenNor Therapeutics (Suzhou) Limited, priority 2023, dated 2024):
Values after ≈ are worked out from the molar mass of the structure shown. Structures can show the parent of a compound that is named as a salt. Where two headings read alike, the source gives them in different places.

How the values were obtained:
Format in all cases: physicochemical
[1] = Hygroscopicity test (dynamic vapor sorption, DVS)
Text: The DVS results of the crystal form I (FIG. 12A) show slow weight gains from 0 to 60% RH and 70% RH to 95% RH, and a rapid weight gain from 60% RH to 70% RH.

[2] = Stability test, open conditions at 25 °C/60% RH and 40 °C/75% RH for 3 days; settings: for Change in appearance / Change in crystal form / Purity: 3 days
Protocol: Samples were separately taken from two crystal forms I and II of the monotriphenylacetate salt of the exemplary compound of formula (II) and left to stand in open conditions at 25 °C/60% RH and 40 °C/75% RH for 3 days.
Table 4. Summary of stability study data

[3] = Kinetic solubility in water and four biological media at 37 °C; settings: for S: Solubility / solubility at 1 h / solubility at 4 h / solubility at 24 h: about 10 mg/mL sample added; for S: Solubility: LOQ = 0.099 µg/mL; for solubility at 1 h / solubility at 4 h / solubility at 24 h: read-out: S: Solubility; for FC: change in appearance: solid by XRPD; for pH: supernatant
Protocol: About 10 mg/mL of sample (on a free base basis) was added to various biological media. After shaking at 100 rpm at 37 °C (for 1/4/24 h), samples 01-05 were centrifuged, and the solids were collected for XRPD test, while the supernatant was used for detection and pH measurement.
Table 9. Kinetic solubility of crystal form I in water and four biological media at 37 °C (mg/mL)

[4] = Acceleration stability test at 40 °C and 75% humidity, one month
Protocol: The commercially available amorphous form of rifabutin and the crystal forms V and VI of the present application were separately placed in a constant-temperature and constant-humidity incubator at 40 °C and 75% humidity for acceleration test. After one month, the change in purity was determined.

[5] = Approximate solubility of the starting free base at room temperature; settings: room temperature (about 25 °C)
Protocol: The approximate solubility of the starting free base of the exemplary compound of formula (II) in 5 single solvents and 9 mixed solvents at room temperature (about 25 °C) was also tested. Table 1. Approximate solubility (mg/mL) of the starting free base at room temperature

CO[C@H]1/C=C/O[C@@]2(C)Oc3c(C)c(O)c4c(c3C2=O)C2=NC3(CCN(CCn5c([N+](=O)[O-])cnc5C)CC3)NC2=C(NC(=O)/C(C)=C\C=C\[C@H](C)[C@H](O)[C@@H](C)[C@@H](O)[C@@H](C)[C@H](OC(C)=O)[C@@H]1C)C4=O [Crystal form I of triphenylacetate salt]
water absorption ([1]; 25 °C/80% RH (relative to 0% RH), about 1 H2O): 1.5%
hygroscopicity ([1]; DVS, 25 °C/80% RH): slightly hygroscopic
change in appearance of crystal form before/after DVS evaluation (XRPD) ([1]; before/after DVS): no change
Change in appearance ([2]; 25 °C/60% RH Open): No change
Change in crystal form ([2]; 25 °C/60% RH Open): No change
Purity ([2]; 25 °C/60% RH Open): 98.09 Area%
Change in appearance ([2]; 40 °C/75% RH Open): No change
Change in crystal form ([2]; 40 °C/75% RH Open): No change
Purity ([2]; 40 °C/75% RH Open): 98.22 Area%
Starting sample Purity ([2]; starting sample, before storage): 97.23 Area%
S: Solubility ([3]; Water, 1 h): <LOQ
S: Solubility ([3]; Water, 4 h): <LOQ
S: Solubility ([3]; Water, 24 h): <LOQ
solubility at 1 h ([3]; fassgf, pH 1.6, FaSSGF (1.6), 1 h): 1300 µg/mL
solubility at 4 h ([3]; fassgf, pH 1.6, FaSSGF (1.6), 4 h): 1600 µg/mL
solubility at 24 h ([3]; fassgf, pH 1.6, FaSSGF (1.6), 24 h): ~1600 µg/mL
solubility at 1 h ([3]; fassif, pH 6.5, FaSSIF (6.5), 1 h): 12 µg/mL
solubility at 4 h ([3]; fassif, pH 6.5, FaSSIF (6.5), 4 h): 5.7 µg/mL
solubility at 24 h ([3]; fassif, pH 6.5, FaSSIF (6.5), 24 h): 7.5 µg/mL
solubility at 1 h ([3]; fessgf, pH 5, FeSSGF (5.0), 1 h): 120 µg/mL
solubility at 4 h ([3]; fessgf, pH 5, FeSSGF (5.0), 4 h): 180 µg/mL
solubility at 24 h ([3]; fessgf, pH 5, FeSSGF (5.0), 24 h): 220 µg/mL
solubility at 1 h ([3]; fessif, pH 5, FeSSIF (5.0), 1 h): 120 µg/mL
solubility at 4 h ([3]; fessif, pH 5, FeSSIF (5.0), 4 h): 120 µg/mL
solubility at 24 h ([3]; fessif, pH 5, FeSSIF (5.0), 24 h): 140 µg/mL
FC: change in appearance ([3]; FaSSGF (1.6), 1 h): No
FC: change in appearance ([3]; FaSSGF (1.6), 4 h): No
FC: change in appearance ([3]; FaSSGF (1.6), 24 h): No
FC: change in appearance ([3]; FaSSIF (6.5), 1 h): No
FC: change in appearance ([3]; FaSSIF (6.5), 4 h): No
FC: change in appearance ([3]; FaSSIF (6.5), 24 h): No
FC: change in appearance ([3]; FeSSGF (5.0), 1 h): No
FC: change in appearance ([3]; FeSSGF (5.0), 4 h): No
FC: change in appearance ([3]; FeSSGF (5.0), 24 h): No
FC: change in appearance ([3]; FeSSIF (5.0), 1 h): No
FC: change in appearance ([3]; FeSSIF (5.0), 4 h): No
FC: change in appearance ([3]; FeSSIF (5.0), 24 h): No
FC: change in appearance ([3]; Water, 1 h): No
FC: change in appearance ([3]; Water, 4 h): No
FC: change in appearance ([3]; Water, 24 h): No
pH ([3]; FaSSGF (1.6), 1 h): 1.55
pH ([3]; FaSSGF (1.6), 4 h): 1.57
pH ([3]; FaSSGF (1.6), 24 h): 1.54
pH ([3]; FaSSIF (6.5), 1 h): 6.37
pH ([3]; FaSSIF (6.5), 4 h): 6.37
pH ([3]; FaSSIF (6.5), 24 h): 6.40
pH ([3]; FeSSGF (5.0), 1 h): 5.03
pH ([3]; FeSSGF (5.0), 4 h): 5.07
pH ([3]; FeSSGF (5.0), 24 h): 5.07
pH ([3]; FeSSIF (5.0), 1 h): 4.85
pH ([3]; FeSSIF (5.0), 4 h): 4.84
pH ([3]; FeSSIF (5.0), 24 h): 4.84
pH ([3]; Water, 1 h): 4.45
pH ([3]; Water, 4 h): 4.44
pH ([3]; Water, 24 h): 4.62

CO[C@H]1/C=C/O[C@@]2(C)Oc3c(C)c(O)c4c(c3C2=O)C2=NC3(CCN(CC(C)C)CC3)NC2=C(NC(=O)/C(C)=C\C=C\[C@H](C)[C@H](O)[C@@H](C)[C@@H](O)[C@@H](C)[C@H](OC(C)=O)[C@@H]1C)C4=O [amorphous product of rifabutin, rifabutin]
Purity ([4]; after one month at 40 °C and 75% humidity): 95.54%
purity of the original sample ([4]; original sample, before storage): 95.9%

CO[C@H]1/C=C/O[C@@]2(C)Oc3c(C)c(O)c4c(c3C2=O)C2=NC3(CCN(CCn5c([N+](=O)[O-])cnc5C)CC3)NC2=C(NC(=O)/C(C)=C\C=C\[C@H](C)[C@H](O)[C@@H](C)[C@@H](O)[C@@H](C)[C@H](OC(C)=O)[C@@H]1C)C4=O [starting free base]
solubility ([5]; 2-MeTHF): > 41400 µg/mL
solubility ([5]; 2-MeTHF:MTBE (1:1) v:v): > 42400 µg/mL
solubility ([5]; EtOAc): > 40800 µg/mL
solubility ([5]; EtOAc:MTBE (1:1) v:v): > 41400 µg/mL
solubility ([5]; IPA): > 39200 µg/mL
solubility ([5]; IPA:H2O (1:1) v:v): 20500 to 41000 µg/mL (≈ 21.7 to 43.4 mM)
solubility ([5]; IPA:H2O (3:1) v:v): > 41200 µg/mL
solubility ([5]; IPA:H2O (5:1) v:v): > 41200 µg/mL
solubility ([5]; IPA:H2O (9:1) v:v): > 41400 µg/mL
solubility ([5]; IPA:H2O (19:1) v:v): > 42200 µg/mL
solubility ([5]; IPA:n-Heptane (1:1) v:v): 20700 to 41400 µg/mL (≈ 21.9 to 43.9 mM)
solubility ([5]; MTBE): 6700 to 20100 µg/mL (≈ 7.1 to 21.3 mM)
solubility ([5]; Toluene): > 41400 µg/mL
solubility ([5]; Toluene:MTBE (1:1) v:v): > 42400 µg/mL
